Publication PMC12520456, “Regulating Enzyme Activity via Microaggregates Mediated by Phase Separation” (Advanced Science, 2025)
Non-standard residues stand in square brackets, D forms with d. Residues, ends and D or L forms follow the SMILES beside them.

Tests used:
[1] = In vivo safety after intraperitoneal injection; parameters: species or system rat
Text: For in vivo safety, rats receiving an intraperitoneal injection of DPMD were monitored for systemic toxicity and immune response. […] The heart and spleen likewise appeared normal, with no myocardial inflammation or splenic white pulp enlargement (Figure 5G,H). […] We acknowledge that longer‐term studies will be needed, but these initial results support the biosafety of DPMD as a therapeutic agent.
Figure 5 The favorable biosafety and biocompatibility of DPMD. A) The schematic diagram of therapeutic safety benefited from the DPMD. B&C) The blood corpuscle counting and immunotoxicity‐related blood biochemical indexes of rats treated with the DPMD or PBS using intraperitoneal administration. D) Hepatotoxicity measured by pathological section of liver, ALT (glutamic‐pyruvic transaminase), AST (glutamic‐oxalacetic transaminase), total bilirubin (TBIL) and inflammatory cytokines (IL‐6, TNF‐α, MCP‐1and NF‐κB) of liver. E) Nephrotoxicity test, including pathological section of kidney, CR (creatinine), BUN (Blood Urea Nitrogen), albumin (ALB) and inflammatory cytokines (IL‐6, TNF‐α, MCP‐1and NF‐κB) of kidney. […] G) Cardiotoxicity reflected by pathological section and inflammatory cytokines (IL‐6, TNF‐α, MCP‐1and NF‐κB) infiltrating in heart. H) The H&E staining of spleen sections, and IL‐6, TNF‐α, MCP‐1and NF‐κB cytokines were involved in safety detection of DPMD or PBS in spleen. The data from each group were presented as the mean ± SD. Scale bar: 100 µm. Statistical analysis in B‐G was performed using unpaired t‐test.

Proteinase K = molecular target: T1, Proteinase K (Parengyodontium album, UniProt P06873); test: Fluorescence anisotropy binding, non-target protease; conditions: Figure S3A
T1 construct: purchased Sigma-Aldrich
Text: (§1) Figure S3. The fluorescent anisotropy evaluation of binding affinity between DPMD peptide with Proteinase K (A), and inhibitor-saturated and blocked trypsin (B) and chymotrypsin (C). Trypsin/Chymotrypsin was saturated and blocked by aprotinin (Yeasen Biotechnology, trypsin/chymotrypsin inhibitor). (D-H) The fluorescent anisotropy evaluation of binding affinity between DPMD peptide with elastase (D), lipase (E), amylase(F), carboxypeptidase (G), albumin (H) and immunoglobulins (I).
(§2) Figure S4. The DLS analysis of trypsin, chymotrypsin and DPMD with/without trypsin or chymotrypsin. […]
(§3) data acquisition. A series of enzyme solutions with varying concentrations (maximum concentrations of trypsin and chymotrypsin were 20 μM each) were prepared in Tris-HCl buffer (10 mM Tris, 150 mM NaCl, 1 mM EDTA, pH 7.0). These enzyme solutions were added to the 96-well plate and incubated with 100 nM DPMD at room temperature for 30 minutes, with triplicates.
(§4) Fluorescence polarization was measured with an excitation wavelength of 470 nm and an emission […]
(§5) Plot the fluorescence intensity versus concentration data as scatter plots using Origin software.
(§6) For data analysis, fit the concentration-fluorescence polarization data with the logistic function in Origin 2021 software to obtain the fitting curve and determine the half-maximal effective concentration (EC50). […]

[2] = system: trypsin and chymotrypsin in ascitic fluid; test: Ex vivo ascitic fluid from lethal POPF model: aggregates, FRAP, enzyme activity; assay type: biochemical, rat
Text: This ex vivo evidence confirms that DPMD mitigates POPF via an LSPS‐based mechanism: by assembling leaking pancreatic enzymes into non‐fusing microaggregates, DPMD effectively isolates and inactivates the enzymes, thereby preventing proteolytic damage to surrounding tissues.
Figure S13. (A) The evaluation of fluorescence polarization of DPMD with different volumes ascites. ( B) Representative time -lapse FRAP images howling the pre -bleach and recovery signals of DPMD -treated asciteschymotrypsin ex vitro. Circles indicate the bleached area. Scale bars, 10 μm and 1 μm (zoomed -in image). (C) Time-lapse images of DPMD-ascites mixture aggregates, illustrating the non-fusion of two aggregates. (D) The inhibition evaluation of enzymes in ascites bioactivity for trypsin and chymotrypsin by DPMD.
(1 picture or pasted object on this page, not shown here)

[3] = molecular target: T2, chymotrypsin pre-incubated with aprotinin (Bos taurus, UniProt P00766); test: Fluorescence anisotropy binding, aprotinin-blocked chymotrypsin; conditions: inhibitor and protein both at 20 μM; Figure S3C
T2 construct: purchased Aladdin (chymotrypsin); Yeasen Biotechnology (aprotinin)
Text: as §1, §2, §3, §4, §5, §6

[4] = intraperitoneal injection, 7 days post-treatment

T1 sequence (P06873 106-384): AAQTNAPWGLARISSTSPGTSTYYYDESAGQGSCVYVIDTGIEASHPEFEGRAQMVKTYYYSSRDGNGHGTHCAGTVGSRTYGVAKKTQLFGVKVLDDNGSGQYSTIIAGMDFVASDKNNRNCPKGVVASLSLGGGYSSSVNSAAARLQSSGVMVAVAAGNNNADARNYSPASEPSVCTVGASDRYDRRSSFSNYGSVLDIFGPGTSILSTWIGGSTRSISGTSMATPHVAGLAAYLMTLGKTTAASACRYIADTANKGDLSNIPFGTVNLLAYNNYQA

With CC[C@@H](C)[C@@H](NC(=O)[C@@H](CCC(N)=O)NC(=O)[C@H](NC(=O)[C@@H](Cc1ccc(O)cc1)NC(=O)CNC(=O)[C@@H](CC(C)C)NC(=O)[C@H](NC(=O)[C@@H](CO)NC(=O)CNC(=O)[C@@H](C)NC(=O)[C@@H](CC(=O)O)NC(=O)[C@@H](C)NC(=O)[C@@H](CCCNC(=N)N)NC(=O)[C@@H](C)NC(=O)[C@@H](CC(=O)O)NC(=O)[C@@H](C)NC(=O)[C@@H](CCCNC(=N)N)NC(=O)[C@@H](C)NC(=O)[C@@H](CC(=O)O)NC(=O)[C@@H](C)NC(=O)[C@@H](CCCNC(=N)N)NC(=O)[C@@H](C)NC(=O)[C@@H](CC(=O)O)NC(=O)[C@@H](C)NC(=O)[C@H](N)CCCNC(=N)N)C(C)C)[C@H](C)CC)C(=O)N[C@H](CCCNC(=N)N)C(=O)O [DPMD, Ac‐(D‐RADA)4‐CONH2] (H-[dR][dA][dD][dA][dR][dA][dD][dA][dR][dA][dD][dA][dR][dA][dD][dA]G[dS][dV][dL]G[dY][dI][dQ][dI][dR]-OH; N-terminus and C-terminus assumed) the “blood cell counts (red and white cells, platelets)” value [1, 4] was “remained within normal limits”, the “liver function tests (ALT, AST, total bilirubin) and kidney function markers (creatinine, BUN, albumin)” value [1, 4] was “no signs of organ damage or dysfunction” and the “serum pro-inflammatory cytokine levels (IL-6, TNF-α, MCP-1, NF-κB)” value [1, 4] was “indistinguishable from saline‐treated controls”. For the same molecule, the “histopathological examination of major organs” value ([1]; liver, kidney, lung, heart, spleen, H&E) was “no microscopic evidence of toxicity”, the “binding to Proteinase K (fluorescence anisotropy)” value (Proteinase K) was “no appreciable binding” and the “fluorescence recovery after photobleaching of microaggregates in ascitic fluid” value ([2]; Figure S13B) was “minimal fluorescence recovery after photobleaching”. For the same molecule, the “proteolytic activity of trypsin and chymotrypsin in ascitic fluid” value ([2]; Figure S13D) was “markedly suppressed” and the “anisotropy change with aprotinin-blocked chymotrypsin” value [3] was “only a minimal anisotropy change”.
